Test results as given in patent publication US4346076A, “Bis-tetrazoylmethyl substituted cephalosporin antibiotics” (Eli Lilly and Company, priority 1980, dated 1982).
Values after ≈ are worked out from the molar mass of the structure shown. Where two headings read alike, the source gives them in different places.

Columns and labels:
Test in all cases: in vitro antibacterial activity, agar dilution
Format in all cases: cell-based
[1] = system: Streptococcus Group D; settings: read-out: Minimum Inhibitory Concentration
From the text: (§1) The bis-tetrazol-thiomethyl substituted cephalosporins of this invention are broad spectrum antibiotics which inhibit the growth of both gram positive and gram negative microorganisms which are pathogenic to man and animals. […] The following Table 2 lists the minimum inhibitory concentrations of representative compounds of the invention.
(§2) The data in TABLE 2 were obtained in the agar dilution test method using Mueller-Hinton agar containing two percent Supplement C (Difco). Serial two-fold dilutions were run with the highest concentration on test at 128 mcg/ml.

[2] = system: Streptococcus pneumoniae; settings: strain PARK, read-out: Minimum Inhibitory Concentration
From the text: as §1, §2

[3] = system: Proteus inconstans; settings: Providencia alcalifaciens; strain PR33; read-out: Minimum Inhibitory Concentration
From the text: as §1, §2

[4] = system: Proteus rettgeri; settings: Providencia rettgeri, read-out: Minimum Inhibitory Concentration
From the text: as §1, §2

[5] = system: Haemophilus influenzae; settings: Haemophilus influenzae, read-out: Minimum Inhibitory Concentration
From the text: as §1, §2

[6] = system: Shigella sonnei; settings: strain N9, read-out: Minimum Inhibitory Concentration
From the text: as §1, §2

[7] = system: Enterobacter aerogenes; settings: Klebsiella aerogenes, read-out: Minimum Inhibitory Concentration
From the text: as §1, §2

[8] = system: Proteus morganii; settings: Morganella morganii; strain PR15; read-out: Minimum Inhibitory Concentration
From the text: as §1, §2

[9] = system: Streptococcus Group A; settings: strain C203; read-out: Minimum Inhibitory Concentration
From the text: as §1, §2

[10] = system: Escherichia coli
From the text: as §1, §2

[11] = system: Enterobacter cloacae
From the text: as §1, §2

[12] = system: Salmonella sp.
From the text: as §1, §2

[13] = system: Staphylococcus aureus
From the text: as §1, §2

[14] = system: Pseudomonas aeruginosa
From the text: as §1, §2

[15] = system: Klebsiella sp.
From the text: as §1, §2

[16] = system: Serratia marcescens
From the text: as §1, §2

[17] = system: Bordetella bronchoseptica; settings: strain 16, read-out: Minimum Inhibitory Concentration
From the text: as §1, §2

[18] = system: Citrobacter freundii; settings: strain CF17, read-out: Minimum Inhibitory Concentration
From the text: as §1, §2

[19] = system: Staphylococcus epidermidis
From the text: as §1, §2

[20] = strain EC14, read-out: Minimum Inhibitory Concentration
[21] = strain N10, read-out: Minimum Inhibitory Concentration
[22] = strain TEM, read-out: Minimum Inhibitory Concentration
[23] = strain 265A, read-out: Minimum Inhibitory Concentration
[24] = strain EB5, read-out: Minimum Inhibitory Concentration
[25] = strain 1335, read-out: Minimum Inhibitory Concentration
[26] = strain X514, read-out: Minimum Inhibitory Concentration
[27] = read-out: Minimum Inhibitory Concentration
[28] = strain V41, read-out: Minimum Inhibitory Concentration
[29] = strain X1.1, read-out: Minimum Inhibitory Concentration
[30] = strain X400, read-out: Minimum Inhibitory Concentration
[31] = strain Ps18, read-out: Minimum Inhibitory Concentration
[32] = strain X239, read-out: Minimum Inhibitory Concentration
[33] = strain X528, read-out: Minimum Inhibitory Concentration
[34] = strain KAE, read-out: Minimum Inhibitory Concentration
[35] = strain X26, read-out: Minimum Inhibitory Concentration
[36] = strain SE3, read-out: Minimum Inhibitory Concentration
[37] = strain X93, read-out: Minimum Inhibitory Concentration
[38] = strain EPI1, read-out: Minimum Inhibitory Concentration
[39] = strain EPI2, read-out: Minimum Inhibitory Concentration

Compound	MIC ([1]; strain 9960) [µg/mL]	MIC ([1]; strain X66) [µg/mL]	MIC [2] [µg/mL]	MIC [3] [µg/mL]	MIC ([4]; strain C24) [µg/mL]	MIC ([4]; strain PR7) [µg/mL]	MIC [6] [µg/mL]	MIC ([7]; strain C32) [µg/mL]	MIC ([7]; strain EB17) [µg/mL]	MIC ([7]; strain X68) [µg/mL]	MIC [8] [µg/mL]	MIC [9] [µg/mL]	MIC [10, 20] [µg/mL]	MIC [10, 21] [µg/mL]	MIC [10, 22] [µg/mL]	MIC [11, 23] [µg/mL]	MIC [11, 24] [µg/mL]	MIC [12, 25] [µg/mL]	MIC [12, 26] [µg/mL]	MIC [13, 27] [µg/mL]	other results
CO/N=C(\C(=O)N[C@@H]1C(=O)N2C(C(=O)O)=C(CSc3nnn(Cc4nnn[nH]4)n3)CS[C@H]12)c1csc(N)n1 [G, syn 7β-[α-methoximino-α-(2-amino-1,3-thiazol-4-yl)-acetamido]-3-[2-(1H-tetrazol-5-ylmethyl)-2H-tetrazol-5-ylthiomethyl]-3-cephem-4-carboxylic acid]	> 128	> 128	0.03 (≈ 0.0518 µM)	1 (≈ 1.73 µM)	2 (≈ 3.45 µM)	0.03 (≈ 0.0518 µM)	2 (≈ 3.45 µM)	0.25 (≈ 0.431 µM)	0.25 (≈ 0.431 µM)	0.06 (≈ 0.104 µM)	0.5 (≈ 0.863 µM)	0.03 (≈ 0.0518 µM)	0.125 (≈ 0.216 µM)	0.25 (≈ 0.431 µM)	0.125 (≈ 0.216 µM)	64 (≈ 110 µM)	2 (≈ 3.45 µM)	0.5 (≈ 0.863 µM)	0.125 (≈ 0.216 µM)	32 (≈ 55.2 µM)	MIC ([5]; strain 251, resistant strain): 0.06 µg/mL (≈ 0.104 µM); MIC ([5]; strain Brun, sensitive strain): 0.06 µg/mL (≈ 0.104 µM); MIC [13, 28]: 8 µg/mL (≈ 13.8 µM); MIC [13, 29]: 4 µg/mL (≈ 6.9 µM); MIC [13, 30]: > 128 µg/mL; MIC [14, 31]: 32 µg/mL (≈ 55.2 µM); MIC [14, 32]: 16 µg/mL (≈ 27.6 µM); MIC [14, 33]: 16 µg/mL (≈ 27.6 µM); MIC [15, 34]: 8 µg/mL (≈ 13.8 µM); MIC [15, 35]: 0.125 µg/mL (≈ 0.216 µM); MIC [16, 36]: 2 µg/mL (≈ 3.45 µM); MIC [16, 37]: 0.25 µg/mL (≈ 0.431 µM); MIC [17]: 64 µg/mL (≈ 110 µM); MIC [18]: 64 µg/mL (≈ 110 µM); MIC [19, 38]: 32 µg/mL (≈ 55.2 µM); MIC [19, 39]: 64 µg/mL (≈ 110 µM)
CO[C@@]1(NC(=O)Cc2cccs2)C(=O)N2C(C(=O)O)=C(CSc3nnnn3Cc3nnn[nH]3)CS[C@@H]21 [A, 7-(2-thienylacetamido)-7-methoxy-3-[1-(1H-tetrazole-5-ylmethyl)-1H-tetrazole-5-ylthiomethyl]-3-cephem-4-carboxylic acid]	> 128	64 (≈ 116 µM)	4 (≈ 7.26 µM)	4 (≈ 7.26 µM)	1 (≈ 1.82 µM)	4 (≈ 7.26 µM)	8 (≈ 14.5 µM)	> 128	> 128	4 (≈ 7.26 µM)	64 (≈ 116 µM)	0.5 (≈ 0.908 µM)	4 (≈ 7.26 µM)	8 (≈ 14.5 µM)	4 (≈ 7.26 µM)	> 128	> 128	2 (≈ 3.63 µM)	1 (≈ 1.82 µM)	8 (≈ 14.5 µM)	MIC ([5]; strain 76, resistant strain): 0.25 µg/mL (≈ 0.454 µM); MIC ([5]; strain C.L., sensitive strain): 0.25 µg/mL (≈ 0.454 µM); MIC [13, 28]: 2 µg/mL (≈ 3.63 µM); MIC [13, 29]: 2 µg/mL (≈ 3.63 µM); MIC [13, 30]: 16 µg/mL (≈ 29.1 µM); MIC [14, 31]: > 128 µg/mL; MIC [14, 32]: > 128 µg/mL; MIC [14, 33]: > 128 µg/mL; MIC [15, 34]: 4 µg/mL (≈ 7.26 µM); MIC [15, 35]: 1 µg/mL (≈ 1.82 µM); MIC [16, 36]: 64 µg/mL (≈ 116 µM); MIC [16, 37]: 16 µg/mL (≈ 29.1 µM); MIC [17]: > 128 µg/mL; MIC [18]: > 128 µg/mL; MIC [19, 38]: 16 µg/mL (≈ 29.1 µM); MIC [19, 39]: 8 µg/mL (≈ 14.5 µM)
O=CO[C@@H](C(=O)N[C@@H]1C(=O)N2C(C(=O)O)=C(CSc3nnnn3Cc3nnn[nH]3)CS[C@H]12)c1ccccc1 [C]	128 (≈ 229 µM)	> 128	0.25 (≈ 0.448 µM)	2 (≈ 3.58 µM)	0.5 (≈ 0.895 µM)	4 (≈ 7.16 µM)	1 (≈ 1.79 µM)	4 (≈ 7.16 µM)	2 (≈ 3.58 µM)	0.25 (≈ 0.448 µM)	2 (≈ 3.58 µM)	0.5 (≈ 0.895 µM)	0.25 (≈ 0.448 µM)	2 (≈ 3.58 µM)	8 (≈ 14.3 µM)	> 128	128 (≈ 229 µM)	2 (≈ 3.58 µM)	1 (≈ 1.79 µM)	16 (≈ 28.6 µM)	MIC ([5]; strain 251, resistant strain): 4 µg/mL (≈ 7.16 µM); MIC ([5]; strain Brun, sensitive strain): 4 µg/mL (≈ 7.16 µM); MIC [13, 28]: 8 µg/mL (≈ 14.3 µM); MIC [13, 29]: 1 µg/mL (≈ 1.79 µM); MIC [13, 30]: 128 µg/mL (≈ 229 µM); MIC [14, 31]: > 128 µg/mL; MIC [14, 32]: > 128 µg/mL; MIC [14, 33]: > 128 µg/mL; MIC [15, 34]: > 128 µg/mL; MIC [15, 35]: 2 µg/mL (≈ 3.58 µM); MIC [16, 36]: > 128 µg/mL; MIC [16, 37]: 32 µg/mL (≈ 57.3 µM); MIC [17]: 16 µg/mL (≈ 28.6 µM); MIC [18]: > 128 µg/mL; MIC [19, 38]: 8 µg/mL (≈ 14.3 µM); MIC [19, 39]: 32 µg/mL (≈ 57.3 µM)
